Key:
Format in all cases: in vivo
Cyperus difformis = assay: Test Example 3: herbicidal effect by foliage application, Wagner pot (symbol E); conditions: application herbicide amount 320 g/ha; for E herbicidal effect grade: Table 24
In short: (§1)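 Alluvial soil was flooded to a depth of 0.1–0.5 cm, seeded with the weeds and rice, and kept in a greenhouse at 25–30 °C. After 14 days of growth, the foliage received a small-sprayer application of emulsion diluted to the intended rate; injury was rated at 3 weeks.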

[1] = system: directly sowed rice plant; assay: Test Example 3: effect on crop by foliage application, Wagner pot (symbol b); conditions: application herbicide amount 320 g/ha; for b (directly sowed rice plant) effect on crop grade: Table 24
In short: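 Alluvial soil in a 1/10000-are Wagner pot was flooded to a water depth of 0.1–0.5 cm. Echinochloa crus-galli var. crus-galli, Leptochloa chinensis, Cyperus difformis and rice were sown into it and grown in a greenhouse at 25–30 °C.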

Abutilon theophrasti = assay: Test Example 5: herbicidal effect by foliage application, plastic box (symbol M); conditions: 320 g/ha, 3 weeks after application
In short: (§2)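 Seeds were sown in sterilized diluvial soil, covered with about 1.5 cm of soil and grown 14 days in a greenhouse at 25° C. to 30° C. An emulsifiable formulation diluted in water to a set rate was sprayed over foliage, and injury was scored 3 weeks later.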

Scirpus juncoides = assay: Test Example 1: herbicidal activity, application before weed generation in submerged conditions (symbol B); conditions: application herbicide amount 320 g/ha
In short: (§3)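 Flooded alluvial soil (4 cm water) was mixed-sown with the three weed species, and 2.5-leaf rice seedlings were transplanted. On sowing day, a water-diluted emulsion at a predetermined rate was applied to the water surface. After 3 weeks in a 25–30 °C greenhouse, effect was scored 0–5.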

Leptochloa chinensis = assay: Test Example 3: herbicidal effect by foliage application, Wagner pot (symbol D); conditions: application herbicide amount 320 g/ha; for D (Leptochloa chinensis) herbicidal effect grade: Table 24
In short: as §1

[2] = system: Echinochloa oryzacola Vasing.; assay: Test Example 1: herbicidal activity, application before weed generation in submerged conditions (symbol A); conditions: application herbicide amount 320 g/ha
In short: as §3

Galium spurium = assay: Test Example 5: herbicidal effect by foliage application, plastic box (symbol Q); conditions: 320 g/ha, 3 weeks after application
In short: as §2

Alopecurus myosuroides [3] = assay: Test Example 4: herbicidal effect by soil treatment (symbol J); conditions: for J: Alopecurus myosuroides, herbicidal effect grade: 320 g/ha; for Herbicidal effect grade, J: Alopecurus myosuroides: application herbicide amount 320 g/ha
In short: (§4)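 Seeds were sown in sterilized diluvial soil, covered with about 1.5 cm of soil, and the soil surface was sprayed with a water-diluted emulsion of the compound at a predetermined rate. Plants grew in a greenhouse at 25° C. to 30° C.; effects were scored visually 3 weeks after application.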

[4] = system: Echinochloa crus-galli var. crus-galli; assay: Test Example 3: herbicidal effect by foliage application, Wagner pot (symbol H); conditions: application herbicide amount 320 g/ha; for H (Echinochloa crus-galli var. crus-galli) herbicidal effect grade: Table 24
In short: as §1

Apera spica-venti = assay: Test Example 5: herbicidal effect by foliage application, plastic box (symbol L); conditions: 320 g/ha, 3 weeks after application
In short: as §2

rapeseed = assay: Test Example 4: effect on crop by soil treatment (symbol g); conditions: for g: rapeseed, effect grade on crop: 320 g/ha; for Effect on crop grade, g: rapeseed: application herbicide amount 320 g/ha
In short: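 Greenhouse culture at 25° C. to 30° C. followed sowing of seed in spots on sterilized diluvial soil with a soil cover close to 1.5 cm thick.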

Digitaria ciliaris = assay: Test Example 4: herbicidal effect by soil treatment (symbol F); conditions: for F: Digitaria ciliaris, herbicidal effect grade: 320 g/ha; for Herbicidal effect grade, F: Digitaria ciliaris: application herbicide amount 320 g/ha
In short: as §4

corn = assay: Test Example 4: effect on crop by soil treatment (symbol c); conditions: for c: corn, effect grade on crop: 320 g/ha; for Effect on crop grade, c: corn: application herbicide amount 320 g/ha
In short: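 Seeds were sown in spots on sterilized diluvial soil in a plastic box and covered with about 1.5 cm of soil. Plants were then grown in a greenhouse at 25° C. to 30° C.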

wheat = assay: Test Example 5: effect on crop by foliage application, plastic box (symbol e); conditions: 320 g/ha, 3 weeks after application
In short: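 Crop seed is sown alongside grass and broadleaf weed species in spots in sterilized diluvial soil, then covered to a depth of about 1.5 cm. Plants grow in a greenhouse kept at 25° C. to 30° C.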

Alopecurus myosuroides [5] = assay: Test Example 5: herbicidal effect by foliage application, plastic box (symbol J); conditions: 320 g/ha, 3 weeks after application
In short: as §2

Stellaria media = assay: Test Example 5: herbicidal effect by foliage application, plastic box (symbol P); conditions: 320 g/ha, 3 weeks after application
In short: as §2

SMILES	herbicidal effect on E, grade 0-5 (Cyperus difformis)	effect on crop b (directly sowed rice plant), grade 0-5 [1]	M: Abutilon theophrasti, herbicidal effect (criteria 0-5) (Abutilon theophrasti)	Herbicidal effect grade, B: Scirpus juncoides (Scirpus juncoides)	herbicidal effect on D (Leptochloa chinensis), grade 0-5 (Leptochloa chinensis)	Herbicidal effect grade, A: Echinochloa oryzacola Vasing. [2]	Q: Galium spurium, herbicidal effect (criteria 0-5) (Galium spurium)	J: Alopecurus myosuroides, herbicidal effect grade (Alopecurus myosuroides [3])	herbicidal effect on H (Echinochloa crus-galli var. crus-galli), grade 0-5 [4]	L: Apera spica-venti, herbicidal effect (criteria 0-5) (Apera spica-venti)	g: rapeseed, effect grade on crop (rapeseed)	F: Digitaria ciliaris, herbicidal effect grade (Digitaria ciliaris)	c: corn, effect grade on crop (corn)	e: wheat, effect on crop (criteria 0-5) (wheat)	J: Alopecurus myosuroides, herbicidal effect (criteria 0-5) (Alopecurus myosuroides [5])	P: Stellaria media, herbicidal effect (criteria 0-5) (Stellaria media)	E herbicidal effect grade (Cyperus difformis)	b (directly sowed rice plant) effect on crop grade [1]	M: Abutilon theophrasti, herbicidal effect grade (Abutilon theophrasti)	D (Leptochloa chinensis) herbicidal effect grade (Leptochloa chinensis)	further results
CCCC=CC(=O)OC1=C(c2c(C)cc(C)cc2C)C(=O)C(CC(C)=NOC)C1 (centres unmarked) [1-090]	5 (Herbicidal ratio of 90% or more (almost completely withered))	5 (Herbicidal ratio of 90% or more (almost completely withered))	4 (Herbicidal ratio of 70% or higher and lower than 90%)	5 (Herbicidal ratio of 90% or more (almost completely withered))	5 (Herbicidal ratio of 90% or more (almost completely withered))	5 (Herbicidal ratio of 90% or more (almost completely withered))	0 (Herbicidal ratio of 5% or lower (almost no effect))	5 (Herbicidal ratio of 90% or more (almost completely withered))	5 (Herbicidal ratio of 90% or more (almost completely withered))	5 (Herbicidal ratio of 90% or more (almost completely withered))	4 (Herbicidal ratio of 70% or higher and lower than 90%)	5 (Herbicidal ratio of 90% or more (almost completely withered))	3 (Herbicidal ratio of 40% or higher and lower than 70%)	5 (Herbicidal ratio of 90% or more (almost completely withered))	5 (Herbicidal ratio of 90% or more (almost completely withered))	3 (Herbicidal ratio of 40% or higher and lower than 70%)					
COCC(=O)OC1=C(c2c(C)cc(C)cc2C)C(=O)C(CC(C)=NOC)C1 (centres unmarked) [1-093]	5 (Herbicidal ratio of 90% or more (almost completely withered))	5 (Herbicidal ratio of 90% or more (almost completely withered))	4 (Herbicidal ratio of 70% or higher and lower than 90%)	5 (Herbicidal ratio of 90% or more (almost completely withered))	5 (Herbicidal ratio of 90% or more (almost completely withered))	5 (Herbicidal ratio of 90% or more (almost completely withered))	0 (Herbicidal ratio of 5% or lower (almost no effect))	5 (Herbicidal ratio of 90% or more (almost completely withered))	5 (Herbicidal ratio of 90% or more (almost completely withered))	5 (Herbicidal ratio of 90% or more (almost completely withered))	4 (Herbicidal ratio of 70% or higher and lower than 90%)	5 (Herbicidal ratio of 90% or more (almost completely withered))	5 (Herbicidal ratio of 90% or more (almost completely withered))	5 (Herbicidal ratio of 90% or more (almost completely withered))	5 (Herbicidal ratio of 90% or more (almost completely withered))	2 (Herbicidal ratio of 20% or higher and lower than 40%)					
CON=C(C)CC1CC(OC(=O)COCc2ccccc2)=C(c2c(C)cc(C)cc2C)C1=O (centres unmarked) [1-094]	4 (Herbicidal ratio of 70% or higher and lower than 90%)	5 (Herbicidal ratio of 90% or more (almost completely withered))	4 (Herbicidal ratio of 70% or higher and lower than 90%)	5 (Herbicidal ratio of 90% or more (almost completely withered))	5 (Herbicidal ratio of 90% or more (almost completely withered))	5 (Herbicidal ratio of 90% or more (almost completely withered))	0 (Herbicidal ratio of 5% or lower (almost no effect))	5 (Herbicidal ratio of 90% or more (almost completely withered))	5 (Herbicidal ratio of 90% or more (almost completely withered))	5 (Herbicidal ratio of 90% or more (almost completely withered))	4 (Herbicidal ratio of 70% or higher and lower than 90%)	5 (Herbicidal ratio of 90% or more (almost completely withered))	4 (Herbicidal ratio of 70% or higher and lower than 90%)	5 (Herbicidal ratio of 90% or more (almost completely withered))	5 (Herbicidal ratio of 90% or more (almost completely withered))	3 (Herbicidal ratio of 40% or higher and lower than 70%)					
CC#Cc1cc(C)c(C2=C(OC(=O)COc3ccccc3)CC(CC(=NOC)C(C)C)C2=O)c(C)c1 (centres unmarked) [9-003]				4 (Herbicidal ratio of 70% or higher and lower than 90%)		5 (Herbicidal ratio of 90% or more (almost completely withered))											5 (Herbicidal ratio of 90% or more (almost completely withered))	5 (Herbicidal ratio of 90% or more (almost completely withered))	4 (Herbicidal ratio of 70% or higher and lower than 90%)	5 (Herbicidal ratio of 90% or more (almost completely withered))	Q: Galium spurium, herbicidal effect grade (Galium spurium): 0 (Herbicidal ratio of 5% or lower (almost no effect)); Herbicidal effect grade, J: Alopecurus myosuroides (Alopecurus myosuroides [3]): 5 (Herbicidal ratio of 90% or more (almost completely withered)); H (Echinochloa crus-galli var. crus-galli) herbicidal effect grade [4]: 5 (Herbicidal ratio of 90% or more (almost completely withered)); L: Apera spica-venti, herbicidal effect grade (Apera spica-venti): 5 (Herbicidal ratio of 90% or more (almost completely withered)); Effect on crop grade, g: rapeseed (rapeseed): 5 (Herbicidal ratio of 90% or more (almost completely withered)); Herbicidal effect grade, F: Digitaria ciliaris (Digitaria ciliaris): 5 (Herbicidal ratio of 90% or more (almost completely withered)); Effect on crop grade, c: corn (corn): 5 (Herbicidal ratio of 90% or more (almost completely withered)); e: wheat, effect on crop grade (wheat): 4 (Herbicidal ratio of 70% or higher and lower than 90%); J: Alopecurus myosuroides, herbicidal effect grade (Alopecurus myosuroides [5]): 5 (Herbicidal ratio of 90% or more (almost completely withered)); P: Stellaria media, herbicidal effect grade (Stellaria media): 3 (Herbicidal ratio of 40% or higher and lower than 70%)
CON=C(CC1CC(O)=C(c2c(C)cc(C#C[Si](C)(C)C)cc2C)C1=O)C(C)C (centres unmarked) [9-005]				0 (Herbicidal ratio of 5% or lower (almost no effect))		4 (Herbicidal ratio of 70% or higher and lower than 90%)											2 (Herbicidal ratio of 20% or higher and lower than 40%)	4 (Herbicidal ratio of 70% or higher and lower than 90%)	0 (Herbicidal ratio of 5% or lower (almost no effect))	5 (Herbicidal ratio of 90% or more (almost completely withered))	Q: Galium spurium, herbicidal effect grade (Galium spurium): 0 (Herbicidal ratio of 5% or lower (almost no effect)); Herbicidal effect grade, J: Alopecurus myosuroides (Alopecurus myosuroides [3]): 1 (Herbicidal ratio of 5% or higher and lower than 20%); H (Echinochloa crus-galli var. crus-galli) herbicidal effect grade [4]: 5 (Herbicidal ratio of 90% or more (almost completely withered)); L: Apera spica-venti, herbicidal effect grade (Apera spica-venti): 5 (Herbicidal ratio of 90% or more (almost completely withered)); Effect on crop grade, g: rapeseed (rapeseed): 0 (Herbicidal ratio of 5% or lower (almost no effect)); Herbicidal effect grade, F: Digitaria ciliaris (Digitaria ciliaris): 1 (Herbicidal ratio of 5% or higher and lower than 20%); Effect on crop grade, c: corn (corn): 0 (Herbicidal ratio of 5% or lower (almost no effect)); e: wheat, effect on crop grade (wheat): 0 (Herbicidal ratio of 5% or lower (almost no effect)); J: Alopecurus myosuroides, herbicidal effect grade (Alopecurus myosuroides [5]): 4 (Herbicidal ratio of 70% or higher and lower than 90%); P: Stellaria media, herbicidal effect grade (Stellaria media): 0 (Herbicidal ratio of 5% or lower (almost no effect))
